Test [1] has as its target T1, Peroxisome proliferator-activated receptor delta (Homo sapiens, UniProt Q03181).
T1 sequence (Q03181 whole entry): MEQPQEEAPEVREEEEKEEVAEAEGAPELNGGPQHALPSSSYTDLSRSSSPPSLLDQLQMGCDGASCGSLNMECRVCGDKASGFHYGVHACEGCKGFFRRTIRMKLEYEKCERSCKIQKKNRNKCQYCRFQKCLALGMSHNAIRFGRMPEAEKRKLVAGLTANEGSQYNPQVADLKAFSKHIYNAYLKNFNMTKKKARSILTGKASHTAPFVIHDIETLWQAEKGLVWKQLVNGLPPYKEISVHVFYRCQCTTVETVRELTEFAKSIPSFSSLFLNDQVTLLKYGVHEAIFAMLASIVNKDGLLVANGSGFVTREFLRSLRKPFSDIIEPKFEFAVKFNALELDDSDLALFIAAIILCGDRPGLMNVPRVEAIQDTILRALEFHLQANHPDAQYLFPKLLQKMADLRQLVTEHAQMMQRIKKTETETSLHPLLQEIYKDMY
As to the kind of experiment: Agonist activity against human Peroxisome proliferator activated receptor delta in CV-1 cell was determined. Type of test: functional, cell-based.

In test [2] the target is T2, Peroxisome proliferator-activated receptor gamma (Homo sapiens, UniProt P37231).
T2 sequence (P37231 whole entry): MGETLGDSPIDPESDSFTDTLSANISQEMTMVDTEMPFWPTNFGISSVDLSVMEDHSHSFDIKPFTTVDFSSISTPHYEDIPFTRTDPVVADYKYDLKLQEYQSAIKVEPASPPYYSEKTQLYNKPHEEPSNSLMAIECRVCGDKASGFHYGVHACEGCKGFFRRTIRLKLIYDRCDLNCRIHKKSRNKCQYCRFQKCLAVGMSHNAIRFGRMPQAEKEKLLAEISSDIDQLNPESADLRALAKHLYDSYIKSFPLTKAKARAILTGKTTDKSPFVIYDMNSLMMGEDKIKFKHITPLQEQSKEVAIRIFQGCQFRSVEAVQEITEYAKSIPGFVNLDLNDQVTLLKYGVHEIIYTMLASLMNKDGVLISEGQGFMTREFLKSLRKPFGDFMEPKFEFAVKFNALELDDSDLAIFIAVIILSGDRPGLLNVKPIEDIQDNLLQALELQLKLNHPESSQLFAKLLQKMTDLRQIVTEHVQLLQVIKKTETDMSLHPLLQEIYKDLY
As to the kind of experiment: Agonist activity against human peroxisome proliferator activated receptor gamma in CV-1 cell was determined. Format: functional, cell-based.

Test [3] concerns the target T3, Peroxisome proliferator-activated receptor alpha (Homo sapiens, UniProt Q07869).
T3 sequence (Q07869 whole entry): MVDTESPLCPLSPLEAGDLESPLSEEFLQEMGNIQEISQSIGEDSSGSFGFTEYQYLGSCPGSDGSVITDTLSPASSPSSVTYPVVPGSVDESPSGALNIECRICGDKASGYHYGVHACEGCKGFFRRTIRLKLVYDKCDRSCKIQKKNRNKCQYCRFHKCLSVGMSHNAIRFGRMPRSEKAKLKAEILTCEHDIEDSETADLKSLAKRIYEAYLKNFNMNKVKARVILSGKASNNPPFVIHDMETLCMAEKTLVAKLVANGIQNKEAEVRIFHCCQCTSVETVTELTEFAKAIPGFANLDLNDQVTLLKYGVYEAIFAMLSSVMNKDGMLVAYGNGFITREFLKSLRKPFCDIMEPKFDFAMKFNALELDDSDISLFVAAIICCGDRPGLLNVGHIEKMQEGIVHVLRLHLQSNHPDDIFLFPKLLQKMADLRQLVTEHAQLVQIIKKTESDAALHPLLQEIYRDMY
As to the kind of experiment: Agonist activity against human Peroxisome proliferator activated receptor alpha in CV-1 cell was determined. Format: functional, cell-based.

The target of test [4] is T2, Peroxisome proliferator-activated receptor gamma. In words: Agonist activity against human Peroxisome proliferator activated receptor gamma receptor in CV-1 cell was determined. Format: functional, cell-based.
Test [5] concerns the target T3, Peroxisome proliferator-activated receptor alpha. As to the kind of experiment: Agonist activity against human Peroxisome proliferator activated receptor alpha receptor in CV-1 cell was determined. Format: functional, cell-based.
Test [6] addresses T1, Peroxisome proliferator-activated receptor delta. In words: Agonist activity against human PPAR delta receptor in CV-1 cell was determined. Type of test: functional, cell-based.
Test [7] concerns the target T4, Peroxisome proliferator-activated receptor delta (Homo sapiens) (UniProt Q03181).
T4 sequence (whole entry): T1 sequence (Q03181 whole entry)
In words: Percent activation for human Peroxisome proliferator activated receptor delta. Type of test: functional.

Test [8] deals with T2, Peroxisome proliferator-activated receptor gamma. As to the kind of experiment: Agonist activity against human peroxisome proliferator activated receptor gamma was determined. Type of test: functional.
The target of test [9] is T3, Peroxisome proliferator-activated receptor alpha. In words: Agonist activity against human Peroxisome proliferator activated receptor alpha was determined. Type of test: functional.

Structures are written as SMILES.

As a reminder, the EC50 is the midpoint of the concentration-response curve. Lower therefore signals greater potency.

Regarding `CC(C)OC(Cc1ccc(OCc2noc(-c3cc(C(F)(F)F)cc(C(F)(F)F)c3)n2)cc1)C(=O)O` (stereo in doubt; -1n) [listing 1 of 2 here], the EC50 in test [1] turned out to be 0.63 µM; in test [2] it was 0.032 µM; in test [3], 0.004 µM.
For `Cc1ccc(-c2nc(COc3ccc(CC(OC(C)C)C(=O)O)cc3)no2)cc1` (stereo not drawn), the EC50 in [4] turned out to be 0.016 µM; in [5] it was 0.025 µM; in [6] it was 2.5 µM.
In the same order, the values of `CC(C)OC(Cc1ccc(OCc2noc(-c3ccccc3)n2)cc1)C(=O)O` (stereo not drawn) are 0.079 µM, 0.16 µM and 10 µM.
In the same order, the values of `CC(C)OC(Cc1ccc(OCc2noc(-c3cc(C(F)(F)F)cc(C(F)(F)F)c3)n2)cc1)C(=O)O` (stereo not drawn) are 0.032 µM, 0.006 µM and 0.32 µM.
In the same order, the values of `CC(C)OC(Cc1ccc(OCc2noc(-c3ccc(F)cc3)n2)cc1)C(=O)O` (stereo not drawn) are 0.2 µM, 0.16 µM and 7.9 µM.
`CC(C)OC(Cc1ccc(OCc2noc(-c3cc(C(F)(F)F)cc(C(F)(F)F)c3)n2)cc1)C(=O)O` (stereo in doubt; (+)1n) [listing 1 of 2 here] registered an Activation in test [7] of 40%.
For the compound `CC(C)OC(Cc1ccc(OCc2noc(-c3ccc(C(F)(F)F)cc3)n2)cc1)C(=O)O` (stereo not drawn), the EC50 in test [4] was 0.025 µM; in test [5], 0.032 µM; in test [6], 0.5 µM.
The like results for `CC(C)OC(Cc1ccc(OCCc2noc(-c3cccc(F)c3)n2)cc1)C(=O)O` (stereo not drawn) were, in that order, 0.002 µM, 0.5 µM and 4 µM.
In the same order, the values of `CC(C)OC(Cc1ccc(OCCc2noc(-c3cccc(Cl)c3)n2)cc1)C(=O)O` (stereo not drawn) are 0.004 µM, 0.32 µM and 0.1 µM.
For `CC(C)OC(Cc1ccc(OCc2noc(-c3cc(F)cc(F)c3)n2)cc1)C(=O)O` (stereo not drawn), the EC50 turned out to be 0.1 µM in test [4], 0.04 µM in [5] and 0.16 µM in [6].
Take `CC(C)OC(Cc1ccc(OCc2noc(-c3cc(C(F)(F)F)cc(C(F)(F)F)c3)n2)cc1)C(=O)O` (stereo in doubt; (+)1n) [listing 2 of 2 here]: the values for the EC50 in test [1], in test [2] and in test [3] were 0.79 µM, 0.63 µM and 2.5 µM, respectively.
Regarding `CC(C)OC(Cc1ccc(OCc2noc(-c3ccc(C(C)(C)C)cc3)n2)cc1)C(=O)O` (stereo not drawn), the figures for the EC50 in test [4], in [5] and in test [6] were 0.003 µM, 0.04 µM and 5 µM, respectively.
In the case of `CC(C)OC(Cc1ccc(OCCc2noc(-c3ccc(F)cc3)n2)cc1)C(=O)O` (stereo not drawn), the EC50 in test [4] is 0.04 µM; in test [5], 0.79 µM.
In the same order, the values of `CC(C)OC(Cc1ccc(OCCc2noc(-c3ccccc3)n2)cc1)C(=O)O` (stereo not drawn) are 0.013 µM and 2 µM.
Turning to `CC(C)OC(Cc1ccc(OCc2noc(-c3ccc(OC(F)(F)F)cc3)n2)cc1)C(=O)O` (stereo not drawn), the EC50 in test [4] was found to be 0.063 µM; in [5], 0.02 µM; in test [6], 7.9 µM.
`CC(C)OC(Cc1ccc(OCc2noc(-c3cc(C(F)(F)F)cc(C(F)(F)F)c3)n2)cc1)C(=O)O` (stereo in doubt; -1n) [listing 2 of 2 here] registered an Activation in [7] of 40%.
On to `CC(C)OC(Cc1ccc(OCCc2noc(-c3cccc(C(F)(F)F)c3)n2)cc1)C(=O)O` (stereo not drawn), for which the concentration giving a half-maximal response (EC50) was determined as 0.006 µM in test [4], 0.2 µM in test [5] and 0.5 µM in [6].
In the same order, the values of `CC(C)OC(Cc1ccc(OCc2noc(-c3ccc(Br)cc3)n2)cc1)C(=O)O` (stereo not drawn) are 0.032 µM, 0.04 µM and 0.79 µM.
In the same order, the values of `CC(C)OC(Cc1ccc(OCc2noc(-c3cccc(F)c3)n2)cc1)C(=O)O` (stereo not drawn) are 0.1 µM, 0.079 µM and 7.9 µM.
Turning to `CC(C)OC(Cc1ccc(OCCc2noc(-c3cc(C(F)(F)F)cc(C(F)(F)F)c3)n2)cc1)C(=O)O` (stereo not drawn), in [7], the Activation is less than 40%. The EC50 in test [8] amounted to 0.004 µM; in test [9], 0.05 µM.
Consider `Cc1ccccc1-c1nc(COc2ccc(CC(OC(C)C)C(=O)O)cc2)no1` (stereo not drawn), for which the EC50 in [4] was found to be 0.1 µM; in test [5], 0.04 µM; in [6], 1.6 µM.
Consider `CC(C)OC(Cc1ccc(OCc2noc(-c3ccc(C(C)C)cc3)n2)cc1)C(=O)O` (stereo not drawn), for which the figures for the EC50 in [4], in test [5] and in [6] were 0.004 µM, 0.013 µM and 7.9 µM, respectively.
With `CC(C)OC(Cc1ccc(OCc2noc(C3CCCCC3)n2)cc1)C(=O)O` (stereo not drawn), the figures for the EC50 in test [4] and in test [5] were 0.23 µM and 0.24 µM, respectively.
As for `Cc1cccc(-c2nc(COc3ccc(CC(OC(C)C)C(=O)O)cc3)no2)c1` (stereo not drawn), the EC50 came to 0.05 µM in [4], 0.079 µM in [5] and 1.6 µM in [6].
As for `CC(C)OC(Cc1ccc(OCCc2noc(-c3ccccc3C(F)(F)F)n2)cc1)C(=O)O` (stereo not drawn), the EC50 was 2.5 µM in test [1], 0.16 µM in test [2] and 0.4 µM in test [3].
As to `CC(C)OC(Cc1ccc(OCc2noc(-c3ccc(Cl)cc3)n2)cc1)C(=O)O` (stereo not drawn), the EC50 in test [4] was 0.02 µM; in test [5], 0.013 µM; in test [6] it was 0.5 µM.
Take `CC(C)OC(Cc1ccc(OCCc2noc(-c3ccc(Cl)cc3)n2)cc1)C(=O)O` (stereo not drawn): the results for the EC50 in [4] and in test [5] were 0.025 µM and 0.4 µM, respectively.
